The results in this text go back to ChEMBL document CHEMBL5036349, “Development of potent dual PDK1/AurA kinase inhibitors for cancer therapy: Lead-optimization, structural insights, and ADME-Tox profile” (Eur J Med Chem, 2021).

In series [1] the target is T1, Histone deacetylase 8 (Homo sapiens) (UniProt Q9BY41).
T1 sequence (whole entry): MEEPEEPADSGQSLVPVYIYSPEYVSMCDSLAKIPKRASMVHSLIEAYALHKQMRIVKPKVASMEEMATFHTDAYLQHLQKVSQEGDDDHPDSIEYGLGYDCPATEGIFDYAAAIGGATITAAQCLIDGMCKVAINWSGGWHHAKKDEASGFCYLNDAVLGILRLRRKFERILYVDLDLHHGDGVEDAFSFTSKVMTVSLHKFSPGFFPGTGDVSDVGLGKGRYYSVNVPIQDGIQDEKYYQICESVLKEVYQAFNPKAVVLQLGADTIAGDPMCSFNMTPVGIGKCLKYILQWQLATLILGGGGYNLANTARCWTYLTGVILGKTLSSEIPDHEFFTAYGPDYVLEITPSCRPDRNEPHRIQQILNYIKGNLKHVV
As to the kind of experiment: Inhibition on human recombinant HDAC8 at 10 uM measured after 20 min by luminescence glo assay.

For series [2], the target named is Histone deacetylase 9 (Homo sapiens) (UniProt Q9UKV0). Description: Inhibition on human recombinant HDAC9 at 10 uM measured after 20 min by luminescence glo assay.
Series [3] addresses {'v': 'CYP3A4', 'o': 'p', 'q': 'Inhibition of CYP3A4 (unknown origin)'} (Homo sapiens, UniProt P08684). Description: Inhibition of CYP3A4 (unknown origin) at 10 uM pre-incubated for 30 min followed by addition of NADPH and measured after 30 min by Luminescence based plate reader method relative to control. As to conditions: time 60 min. Type of series: ADME.
Series [4] addresses Histone deacetylase 4 (Homo sapiens) (UniProt P56524). As to the kind of experiment: Inhibition on human recombinant HDAC4 at 10 uM measured after 20 min by luminescence glo assay.
For series [5], the target named is T2, NAD-dependent protein deacetylase sirtuin-7 (Homo sapiens) (UniProt Q9NRC8).
T2 sequence (whole entry): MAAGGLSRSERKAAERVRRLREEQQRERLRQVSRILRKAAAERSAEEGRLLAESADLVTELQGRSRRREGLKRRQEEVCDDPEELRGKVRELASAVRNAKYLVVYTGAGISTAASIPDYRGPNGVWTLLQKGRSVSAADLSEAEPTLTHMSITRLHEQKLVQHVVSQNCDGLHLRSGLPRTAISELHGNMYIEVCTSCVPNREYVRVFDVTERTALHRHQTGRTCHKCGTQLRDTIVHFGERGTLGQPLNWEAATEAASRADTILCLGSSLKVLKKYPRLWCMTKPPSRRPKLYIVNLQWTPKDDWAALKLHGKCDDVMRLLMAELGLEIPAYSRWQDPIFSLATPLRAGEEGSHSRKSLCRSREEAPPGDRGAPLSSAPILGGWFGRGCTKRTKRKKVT
Description: Inhibition of human recombinant SIRT7 at 10 uM incubated for 20 mins followed by mixing and measure after 30 mins by Luminescence assay relative to control. As to conditions: time 50.0 min.

Series [6] deals with Aurora kinase B (Homo sapiens) (UniProt Q96GD4). Description: Inhibition of Aurora B kinase (unknown origin) at 10 uM in presence of ATP incubated for 30 min followed by addition of kinase glo-reagent measured after 20 mins by Luminescence based plate reader assay relative to control. The note with it: time 50.0 min. A general note: In Kinase-Glo more light means more ATP remaining.

Series [7] deals with T3, Protein deacetylase HDAC6 (Homo sapiens) (UniProt Q9UBN7).
T3 sequence (whole entry): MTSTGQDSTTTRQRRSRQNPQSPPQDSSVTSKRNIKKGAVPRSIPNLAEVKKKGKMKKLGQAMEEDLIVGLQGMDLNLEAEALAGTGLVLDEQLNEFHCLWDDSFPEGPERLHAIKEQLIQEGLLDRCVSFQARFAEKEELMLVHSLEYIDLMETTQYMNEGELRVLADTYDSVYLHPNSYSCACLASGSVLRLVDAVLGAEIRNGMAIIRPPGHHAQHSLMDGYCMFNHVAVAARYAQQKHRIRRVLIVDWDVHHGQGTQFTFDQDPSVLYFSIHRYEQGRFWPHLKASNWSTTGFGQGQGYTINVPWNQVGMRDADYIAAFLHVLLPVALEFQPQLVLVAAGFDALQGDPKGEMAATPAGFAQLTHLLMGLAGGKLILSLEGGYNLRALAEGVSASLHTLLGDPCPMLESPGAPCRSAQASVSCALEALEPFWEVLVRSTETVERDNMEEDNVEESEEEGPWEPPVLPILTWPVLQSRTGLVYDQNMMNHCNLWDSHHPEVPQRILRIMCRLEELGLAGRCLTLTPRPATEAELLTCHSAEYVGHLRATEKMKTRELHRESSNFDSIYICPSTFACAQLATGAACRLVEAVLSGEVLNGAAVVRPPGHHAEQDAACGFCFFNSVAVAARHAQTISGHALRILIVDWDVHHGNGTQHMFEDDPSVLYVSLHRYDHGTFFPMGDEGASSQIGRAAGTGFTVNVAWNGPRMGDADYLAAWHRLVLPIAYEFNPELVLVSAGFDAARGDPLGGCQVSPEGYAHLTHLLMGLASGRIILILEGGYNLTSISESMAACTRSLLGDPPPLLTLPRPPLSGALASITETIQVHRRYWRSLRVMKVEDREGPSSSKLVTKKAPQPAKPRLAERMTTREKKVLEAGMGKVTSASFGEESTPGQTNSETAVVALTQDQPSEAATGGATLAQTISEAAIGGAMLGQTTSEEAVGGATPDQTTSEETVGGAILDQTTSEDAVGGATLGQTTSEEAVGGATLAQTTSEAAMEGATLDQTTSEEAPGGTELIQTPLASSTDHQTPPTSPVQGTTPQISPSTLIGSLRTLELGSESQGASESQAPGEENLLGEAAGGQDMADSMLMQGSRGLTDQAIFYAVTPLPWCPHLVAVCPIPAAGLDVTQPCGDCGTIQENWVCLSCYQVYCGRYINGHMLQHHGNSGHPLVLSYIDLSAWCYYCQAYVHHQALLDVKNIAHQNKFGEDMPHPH
As to the kind of experiment: Inhibition on human recombinant HDAC6 at 10 uM measured after 20 min by luminescence glo assay.

The term inhibition denotes the drop in the measured response relative to a control, in per cent.

Bounds are passed on as bounds.

Chain of Histone deacetylase 4 (Homo sapiens) (P56524 whole entry): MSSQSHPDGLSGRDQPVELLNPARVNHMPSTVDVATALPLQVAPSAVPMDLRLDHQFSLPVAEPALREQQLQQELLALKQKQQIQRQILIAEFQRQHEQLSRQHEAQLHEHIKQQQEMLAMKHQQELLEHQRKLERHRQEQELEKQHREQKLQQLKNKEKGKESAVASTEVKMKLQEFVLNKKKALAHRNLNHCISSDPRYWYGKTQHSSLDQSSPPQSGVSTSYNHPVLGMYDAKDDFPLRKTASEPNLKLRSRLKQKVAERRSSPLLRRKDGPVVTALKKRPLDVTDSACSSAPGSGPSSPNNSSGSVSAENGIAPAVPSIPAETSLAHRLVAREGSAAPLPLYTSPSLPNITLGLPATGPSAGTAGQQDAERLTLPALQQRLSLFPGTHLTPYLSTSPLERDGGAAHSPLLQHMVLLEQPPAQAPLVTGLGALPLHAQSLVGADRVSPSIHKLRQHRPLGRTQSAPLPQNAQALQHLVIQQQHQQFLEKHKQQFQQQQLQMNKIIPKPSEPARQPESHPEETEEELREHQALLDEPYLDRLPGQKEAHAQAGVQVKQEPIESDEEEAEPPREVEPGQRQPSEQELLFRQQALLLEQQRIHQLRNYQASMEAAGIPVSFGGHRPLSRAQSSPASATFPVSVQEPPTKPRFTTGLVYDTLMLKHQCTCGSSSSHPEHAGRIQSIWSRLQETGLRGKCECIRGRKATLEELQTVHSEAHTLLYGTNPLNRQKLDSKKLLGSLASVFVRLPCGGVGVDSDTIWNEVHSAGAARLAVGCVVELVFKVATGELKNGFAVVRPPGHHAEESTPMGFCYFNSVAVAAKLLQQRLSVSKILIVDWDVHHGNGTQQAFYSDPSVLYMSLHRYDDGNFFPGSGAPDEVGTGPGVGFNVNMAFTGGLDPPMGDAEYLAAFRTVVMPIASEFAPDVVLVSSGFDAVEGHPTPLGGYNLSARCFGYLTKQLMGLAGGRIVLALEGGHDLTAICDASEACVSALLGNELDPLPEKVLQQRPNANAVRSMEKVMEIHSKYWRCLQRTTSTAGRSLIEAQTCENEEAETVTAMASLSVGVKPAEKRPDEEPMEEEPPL
Chain of {'v': 'CYP3A4', 'o': 'p', 'q': 'Inhibition of CYP3A4 (unknown origin)'} (P08684 whole entry): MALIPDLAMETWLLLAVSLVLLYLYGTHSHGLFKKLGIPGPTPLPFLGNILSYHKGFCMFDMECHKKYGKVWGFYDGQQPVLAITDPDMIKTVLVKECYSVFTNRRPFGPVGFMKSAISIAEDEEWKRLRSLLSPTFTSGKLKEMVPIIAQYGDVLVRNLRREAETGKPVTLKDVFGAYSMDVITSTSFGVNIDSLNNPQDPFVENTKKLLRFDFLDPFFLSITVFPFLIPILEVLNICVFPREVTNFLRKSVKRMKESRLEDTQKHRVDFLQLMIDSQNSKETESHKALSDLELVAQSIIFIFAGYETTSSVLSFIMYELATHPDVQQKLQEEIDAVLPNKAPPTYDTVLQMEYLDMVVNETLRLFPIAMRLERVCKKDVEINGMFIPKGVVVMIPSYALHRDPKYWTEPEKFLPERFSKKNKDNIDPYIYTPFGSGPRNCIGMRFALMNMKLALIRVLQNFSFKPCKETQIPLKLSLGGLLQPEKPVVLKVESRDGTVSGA
Chain of Histone deacetylase 9 (Homo sapiens) (Q9UKV0 whole entry): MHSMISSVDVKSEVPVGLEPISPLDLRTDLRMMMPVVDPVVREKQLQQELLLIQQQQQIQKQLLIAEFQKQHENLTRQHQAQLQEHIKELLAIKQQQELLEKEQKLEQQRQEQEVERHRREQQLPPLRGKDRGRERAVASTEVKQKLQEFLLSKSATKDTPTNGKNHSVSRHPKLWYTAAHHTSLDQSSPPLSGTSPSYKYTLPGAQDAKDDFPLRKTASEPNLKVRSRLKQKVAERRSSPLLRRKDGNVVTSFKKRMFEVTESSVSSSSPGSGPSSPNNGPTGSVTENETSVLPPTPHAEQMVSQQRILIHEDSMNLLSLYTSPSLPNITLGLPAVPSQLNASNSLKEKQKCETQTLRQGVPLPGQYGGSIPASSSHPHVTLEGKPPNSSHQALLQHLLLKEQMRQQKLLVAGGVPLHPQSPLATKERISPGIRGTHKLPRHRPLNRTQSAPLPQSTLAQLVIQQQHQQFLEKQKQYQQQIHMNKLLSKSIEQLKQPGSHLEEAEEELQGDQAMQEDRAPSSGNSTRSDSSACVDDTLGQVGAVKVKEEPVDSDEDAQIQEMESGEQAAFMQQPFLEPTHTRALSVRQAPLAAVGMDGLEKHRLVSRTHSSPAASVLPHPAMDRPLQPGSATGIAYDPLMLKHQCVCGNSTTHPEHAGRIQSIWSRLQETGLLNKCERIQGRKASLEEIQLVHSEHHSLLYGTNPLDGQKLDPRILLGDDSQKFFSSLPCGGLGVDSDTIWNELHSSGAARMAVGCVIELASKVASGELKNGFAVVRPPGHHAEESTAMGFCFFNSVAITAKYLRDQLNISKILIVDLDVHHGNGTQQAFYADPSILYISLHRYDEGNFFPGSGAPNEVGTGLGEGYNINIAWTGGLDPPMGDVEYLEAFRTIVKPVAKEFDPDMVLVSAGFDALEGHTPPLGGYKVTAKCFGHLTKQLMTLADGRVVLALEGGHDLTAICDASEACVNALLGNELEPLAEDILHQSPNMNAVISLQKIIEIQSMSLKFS
Chain of Aurora kinase B (Homo sapiens) (Q96GD4 whole entry): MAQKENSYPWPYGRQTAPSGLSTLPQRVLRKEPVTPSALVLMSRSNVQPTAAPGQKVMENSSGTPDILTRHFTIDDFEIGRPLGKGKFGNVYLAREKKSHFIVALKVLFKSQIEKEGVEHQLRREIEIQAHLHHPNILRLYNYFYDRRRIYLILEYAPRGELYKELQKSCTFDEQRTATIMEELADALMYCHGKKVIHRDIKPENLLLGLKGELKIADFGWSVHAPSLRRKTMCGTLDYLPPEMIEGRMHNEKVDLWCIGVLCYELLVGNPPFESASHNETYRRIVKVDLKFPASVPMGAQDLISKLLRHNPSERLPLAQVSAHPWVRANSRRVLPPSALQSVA

For the compound `Cc1c(Br)cc(C(=O)N[C@@H](C(=O)Nc2ccc3c(c2)/C(=C/c2cnc[nH]2)C(=O)N3)c2ccccc2)c(=O)n1Cc1ccc(F)c(F)c1`, the inhibition in series [1] is less than 30%; in series [2], less than 30%; in series [4], less than 30%; in series [5], less than 30%; in series [6] it was less than 20%; in series [7] it was less than 30%. This compound also gave an inhibition at 0.5 h, 10 µM in series [3] of less than 45%.
Regarding `O=C(CCNC(=O)c1cccn(Cc2ccc(F)c(F)c2)c1=O)Nc1ccc2c(c1)/C(=C/c1cnc[nH]1)C(=O)N2`, the inhibition in series [1] is less than 30%; in series [2] it was less than 30%; in series [4], less than 30%; in series [5] it was less than 30%; in series [6], less than 20%; in series [7] it was less than 30%. This compound also displayed an inhibition at 0.5 h, 10 µM in series [3] of more than 90%.
With `O=C1Nc2ccc(NC(=O)[C@H](NC(=O)c3cccn(Cc4ccc(F)c(F)c4)c3=O)c3ccccc3)cc2/C1=C/c1cnc[nH]1` (stereo in doubt), the inhibition in series [1] was less than 30%; in series [2], less than 30%; in series [4] it was less than 30%; in series [5], less than 30%; in series [6] it was less than 20%; in series [7] it was less than 30%.
As for `Cc1ccc(C(=O)NCC(=O)Nc2ccc3c(c2)/C(=C/c2cnc[nH]2)C(=O)N3)c(=O)n1Cc1ccc(F)c(F)c1`, the inhibition in series [1] was less than 30%; in series [2], less than 30%; in series [4], less than 30%; in series [5] it was less than 30%; in series [6] it was less than 20%; in series [7], less than 30%. The compound also showed an inhibition at 0.5 h, 10 µM in series [3] of more than 90%.
